{"source": "ChEMBL document CHEMBL4627380", "about": "“Phaeosphaones: Tyrosinase Inhibitory Thiodiketopiperazines from an Endophytic Phaeosphaeria fuckelii” (J Nat Prod, 2020)", "key": {"Homo sapiens": {"organism": "Homo sapiens", "assay": "Inhibition of alpha-glucosidase (unknown origin) at 100 uM"}, "Mushroom tyrosinase": {"biological_target": "Mushroom tyrosinase (Agaricus bisporus, UniProt O42713+Q00024+C7FF04+C7FF05)", "assay": "Inhibition of mushroom tyrosinase using L-Dopa as substrate preincubated for 10 mins followed by substrate addition and measured after 5 mins"}}, "note": "Calls of active or inactive are those of the source. The rule behind the calls is not given here.", "data": [{"molecule": "CO[C@]1([C@H](SC)c2c[nH]c3ccccc23)NC(=O)[C@@](SC)(C(C)C)N(C)C1=O", "values": [{"measurement": "inhibition", "setting": "Homo sapiens", "result": "inactive"}]}, {"molecule": "CS[C@H](c1c[nH]c2ccccc12)[C@]1(O)NC(=O)[C@@](SC)(C(C)C)N(C)C1=O", "values": [{"measurement": "inhibition", "setting": "Homo sapiens", "result": "inactive"}]}, {"molecule": "CC(C)[C@]12SS[C@]([C@@H](O)c3c[nH]c4ccccc34)(CC1=O)C(=O)N2C", "values": [{"measurement": "inhibition", "setting": "Homo sapiens", "result": "inactive"}]}, {"molecule": "CC(C)[C@@H]1NC(=O)[C@@H]2C[C@@]3(O)c4ccccc4N[C@H]3N2C1=O", "values": [{"measurement": "inhibition", "setting": "Homo sapiens", "result": "inactive"}]}, {"molecule": "CO[C@@]1([C@H](SC)c2c[nH]c3ccccc23)NC(=O)[C@@](SC)(C(C)C)N(C)C1=O", "values": [{"measurement": "IC50", "setting": "Mushroom tyrosinase", "result": 33.2, "unit": "µM"}, {"measurement": "inhibition", "setting": "Homo sapiens", "result": "inactive"}]}, {"molecule": "CS[C@]1(Cc2c[nH]c3ccccc23)NC(=O)[C@](CO)(SC)N(C)C1=O", "note": "[CHETOSEMINUDIN B]", "values": [{"measurement": "IC50", "setting": "Mushroom tyrosinase", "result": 31.7, "unit": "µM"}, {"measurement": "inhibition", "setting": "Homo sapiens", "result": "inactive"}]}, {"molecule": "CC(C)[C@@]12SS[C@]3(C(=O)N1C)[C@@H](O)[C@]1(c4c[nH]c5ccccc45)c4ccccc4N[C@@H]1N3C2=O", "values": [{"measurement": "IC50", "setting": "Mushroom tyrosinase", "result": 28.4, "unit": "µM"}, {"measurement": "inhibition", "setting": "Homo sapiens", "result": "inactive"}]}, {"molecule": "CS[C@]1(Cc2c[nH]c3ccccc23)NC(=O)[C@@](SC)(C(C)C)NC1=O", "values": [{"measurement": "inhibition", "setting": "Homo sapiens", "result": "inactive"}]}]}
